From PMC6417734 (PLoS ONE, 2019)
Values joined by “and” are separate entries in the source; they are usually repeats but may differ in a detail not shown here. Identical values can stand only once. Like-named read-outs stand apart in the source and are kept apart here.

Legend:
[1] = Oral pharmacokinetic study in rats (plasma, UPHILIC-MS/MS, non-compartmental analysis); assay type: in vivo, wistar albino rats; conditions: for Kel: in h-1 (unit assumed); for AUClast / AUCtot: in ng·h/mL; for thalf: in h (unit assumed)
Method: Six healthy rats weighing between 180–220 g were received and maintained under standard laboratory conditions before the experiments. […] Blood samples (approx.0.5 ml) were collected at 0, 0.33, 0.66, 1, 2, 3, 5, 8, 12 and 24 h in lithium heparinized tubes after dosing. Plasma was separated by centrifugation for 8 min at 4000 rpm and stored at −80 °C till further analysis.
The non-compartmental model was used to calculate the pharmacokinetic parameters using WinNonlin software (Pharsight Co., Mountain View, CA, USA). The maximum plasma concentration (Cmax), time to achieve this (Tmax), area under curve zero to last and infinity (AUC0-24; AUC0-∞), half-life (T½), elimination rate constant (Kel) and mean residence time were measured. Statistical parameters like mean, standard deviation and % RSD were calculated by using MS-Excel 2013 (Microsoft).

[2] = Stability in spiked rat plasma under different storage conditions; assay type: physicochemical; conditions: for stability in spiked rat plasma, short term and long term storage: LQC and HQC, room temperature and -80 °C for 30 days, acceptance within ±15%; for stability of processed plasma samples in autosampler and after freeze-thaw cycles: autosampler for 24 h, three freeze-thaw cycles; for Processed samples (24 h) Accuracy (%): processed rat plasma samples, autosampler at 10 °C; for long term (1 month) Accuracy (%) / Short term (8 h) Accuracy (%) / Freeze/Thaw (3 cycle) Accuracy (%): spiked rat plasma; for long term (1 month) Accuracy (%): -80 °C for 30 days; for Short term (8 h) Accuracy (%): room temperature; for Freeze/Thaw (3 cycle) Accuracy (%): three cycle from -80 °C to room temperature
Method: The short-term (at room temperature for 8 h); post preparation (in autosampler at 10 °C for 24 h), freeze-thaw (three cycle from ─80 °C to room temperature) and long-term (─80 °C for 30 days) stabilities were determined. All stabilities results were measured against freshly spiked CCs and acceptance were limited to be within ±15%.

SUA levels = conditions: ALP dose of 300 mg/day; ref [10]–[12]; cited from earlier work
[3] = Mean of six rats (supplement), oral ALP 20 mg/kg and LES 15 mg/kg
[4] = Wistar albino, rat, plasma, po, 20 mg/kg, Mean line of six rats (supplement), oral ALP 20 mg/kg and LES 15 mg/kg, read-out: Tmax
[5] = Wistar albino, rat, plasma, po, 20 mg/kg, Mean of six rats (supplement), oral ALP 20 mg/kg and LES 15 mg/kg
[6] = Wistar albino, rat, plasma, po, 20 mg/kg, Mean of six rats (supplement), oral ALP 20 mg/kg and LES 15 mg/kg, read-out: AUClast
[7] = Wistar albino, rat, plasma, po, 20 mg/kg, Mean of six rats (supplement), oral ALP 20 mg/kg and LES 15 mg/kg, read-out: Cmax
[8] = Wistar albino, rat, plasma, po, 20 mg/kg, Mean of six rats (supplement), oral ALP 20 mg/kg and LES 15 mg/kg, read-out: MRT
[9] = Wistar albino, rat, plasma, po, 20 mg/kg, individual animal (rats R1-R6), oral ALP 20 mg/kg and LES 15 mg/kg
[10] = Wistar albino, rat, plasma, po, 20 mg/kg, individual animal (rats R1-R6), oral ALP 20 mg/kg and LES 15 mg/kg, read-out: AUClast
[11] = Wistar albino, rat, plasma, po, 20 mg/kg, individual animal (rats R1-R6), oral ALP 20 mg/kg and LES 15 mg/kg, read-out: Cmax
[12] = Wistar albino, rat, plasma, po, 20 mg/kg, individual animal (rats R1-R6), oral ALP 20 mg/kg and LES 15 mg/kg, read-out: MRT
[13] = Wistar albino, rat, plasma, po, 20 mg/kg, rats, oral ALP 20 mg/kg, read-out: Tmax
[14] = Wistar albino, rat, plasma, po, rat plasma, oral co-administration of ALP 20 mg/kg and LES 15 mg/kg, mean ± SD, six rats, read-out: Cmax
[15] = Wistar albino, rat, plasma, po, rat plasma, oral co-administration of ALP 20 mg/kg and LES 15 mg/kg, mean ± SD, read-out: AUC0-24
[16] = Wistar albino, rat, plasma, po, rat plasma, oral co-administration of ALP 20 mg/kg and LES 15 mg/kg, mean ± SD, read-out: MRT
[17] = Wistar albino, rat, plasma, po, rat plasma, oral co-administration of ALP 20 mg/kg and LES 15 mg/kg, six rats, read-out: Tmax
[18] = individual animal (rats R1-R6), oral ALP 20 mg/kg and LES 15 mg/kg, in h
[19] = individual animal (rats R1-R6), oral ALP 20 mg/kg and LES 15 mg/kg, in ng/mL
[20] = individual animal (rats R1-R6), oral ALP 20 mg/kg and LES 15 mg/kg
[21] = HQC nominal value (ALP 7000, OXP 10000, LES 8000 ng/mL)
[22] = LQC nominal value (ALP 70, OXP 100, LES 80 ng/mL)

Kel [1, 3]	Tmax [1, 4] [h]	Cmax [1, 14] [µg/mL]	AUC(0-t) [1, 15] [µg·h/mL]	MRT [1, 16] [h]	Tmax [1, 17] [h]	stability in spiked rat plasma, short term and long term storage [2]	stability of processed plasma samples in autosampler and after freeze-thaw cycles [2]	Processed samples (24 h) Accuracy (%) [2, 21] [%]	Processed samples (24 h) Accuracy (%) [2, 22] [%]	long term (1 month) Accuracy (%) [2, 21] [%]	Short term (8 h) Accuracy (%) [2, 21] [%]	Freeze/Thaw (3 cycle) Accuracy (%) [2, 21] [%]	long term (1 month) Accuracy (%) [2, 22] [%]	Short term (8 h) Accuracy (%) [2, 22] [%]	Freeze/Thaw (3 cycle) Accuracy (%) [2, 22] [%]	Compound	MRT [1, 18]	Cmax [1, 19]	AUClast [1, 20]	AUCtot [1, 20]	also measured
0.1191	2	7.5 ± 0.156	44.8 ± 0.373	7.58 ± 1.52	2	acceptable limits	stable	102.65	104.72	91.04	95.12	92.67	92.43	96.85	102.55	O=c1[nH]c(=O)c2c[nH]nc2[nH]1 [OXP, oxypurinol]	6.956 and 5.837 and 6.059 and 8.731 and 9.5786	7192.39 and 10535.3 and 7573.56 and 6585.93 and 6831.19	49418.6 and 48647.7 and 44044.7 and 42639.7 and 44576.2	50759.5 and 50350.9 and 45393.1 and 45993.3 and 50026.1	AUC [1, 5]: 47.4 µg·h/mL; AUC(0-t) [1, 6]: 44.8 µg·h/mL; Cmax [1, 7]: 7.5 µg/mL; MRT [1, 8]: 7.58 h; AUC [1, 9]: 41.9 µg·h/mL; AUC(0-t) [1, 10]: 39.5 µg·h/mL; Cmax [1, 11]: 6.25 µg/mL; MRT [1, 12]: 8.33 h; Tmax [1, 13]: 2 h; Tmax [1, 18]: 3 and 0.66 and 1
0.5391	0.66	2.03 ± 0.509	3.51 ± 0.571	1.98 ± 0.32	0.66	acceptable limits	stable	99.34	96.54	88.71	90.84	100.54	87.23	93.08	108.60	Oc1ncnc2[nH]ncc12 [ALP, Allopurinol]	1.607 and 2.233 and 2.477 and 1.777 and 1.801	1667.45 and 2378.66 and 2694.26 and 2321.62 and 1731.2	2635.21 and 3641.95 and 4404.97 and 3470.35 and 3598.67	2743.88 and 3774.36 and 4653.35 and 3656.48 and 3742.26	AUC [1, 5]: 3.66 µg·h/mL; AUC(0-t) [1, 6]: 3.51 µg·h/mL; Cmax [1, 7]: 2.03 µg/mL; MRT [1, 8]: 1.99 h; AUC [1, 9]: 3.39 µg·h/mL; AUC(0-t) [1, 10]: 3.32 µg·h/mL; Cmax [1, 11]: 1.38 µg/mL; MRT [1, 12]: 2.04 h; Tmax ([1]; Wistar albino, rat, plasma, po, 20 mg/kg, individual animal (rats R1-R6), oral ALP 20 mg/kg and LES 15 mg/kg, read-out: Tmax): 0.33 h; Tmax [1, 13]: 0.66 h; Kel [1, 20]: 0.3461; detectability in plasma after administration ([1]; rats, post administration of 20 mg/kg of ALP): undetectable after 8 h; patients who do not achieve sustained reductions in SUA levels (< 6 mg/dL) (SUA levels): > 50%
0.09441		8.27 ± 0.191	65.91 ± 0.139	12.4 ± 4.51	1.5	acceptable limits	stable	97.01	112.54	88.59	95.12	90.13	89.81	91.26	94.8	O=C(O)CSc1nnc(Br)n1-c1ccc(C2CC2)c2ccccc12 [LES, Lesinurad]	20.1145 and 8.709 and 12.6844 and 8.471 and 9.848 and 14.9899	5494.01 and 8320.88 and 6878.96 and 11031.4 and 8808.81 and 9091.69	64836.4 and 61847.4 and 85561.6 and 56410.3 and 78552.6	68738 and 73776.1 and 90181.7 and 60657.3 and 99665.6	thalf [1, 3]: 8.497; Tmax ([1]; Wistar albino, rat, plasma, po, 15 mg/kg, Mean line of six rats (supplement), oral ALP 20 mg/kg and LES 15 mg/kg, read-out: Tmax): 1.5 h; AUC ([1]; Wistar albino, rat, plasma, po, 15 mg/kg, Mean of six rats (supplement), oral ALP 20 mg/kg and LES 15 mg/kg): 77.1 µg·h/mL; AUC(0-t) ([1]; Wistar albino, rat, plasma, po, 15 mg/kg, Mean of six rats (supplement), oral ALP 20 mg/kg and LES 15 mg/kg, read-out: AUClast): 65.9 µg·h/mL; Cmax ([1]; Wistar albino, rat, plasma, po, 15 mg/kg, Mean of six rats (supplement), oral ALP 20 mg/kg and LES 15 mg/kg, read-out: Cmax): 8.27 µg/mL; MRT ([1]; Wistar albino, rat, plasma, po, 15 mg/kg, Mean of six rats (supplement), oral ALP 20 mg/kg and LES 15 mg/kg, read-out: MRT): 12.5 h; AUC ([1]; Wistar albino, rat, plasma, po, 15 mg/kg, individual animal (rats R1-R6), oral ALP 20 mg/kg and LES 15 mg/kg): 69.8 µg·h/mL; AUC(0-t) ([1]; Wistar albino, rat, plasma, po, 15 mg/kg, individual animal (rats R1-R6), oral ALP 20 mg/kg and LES 15 mg/kg, read-out: AUClast): 48.2 µg·h/mL; Tmax [1, 18]: 1 and 3 and 2 and 5 and 0.66; thalf [1, 20]: 13.589 and 5.574 and 9.1146 and 5.126 and 5.707 and 11.8685; Kel [1, 20]: 0.05101 and 0.1244 and 0.07605 and 0.1352 and 0.1214 and 0.0584; ratios of AUC (AUC0-24/ AUC0-∞) ([1]; rats, oral ALP 20 mg/kg and LES 15 mg/kg): ≥ 85%
